Measurements as given in the supplement of paper PMC8617591.

What was measured:
[1] = test system: Mycobacterium tuberculosis Erdman (autoluminescent); assay: Einf, fitted maximum growth inhibition of combination (fraction); higher = stronger maximal inhibition
Description: (§1)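 DiaMOND equipotent two-drug combination dose responses against autoluminescent M. tuberculosis Erdman in 8 in vitro models. Read-out is OD600, or luminescence for the intracellular and dormancy models, normalised to untreated wells. Hill-fit Einf, AUC25 and GRinf are potency metrics; FIC50 and FIC90 are Loewe-additivity fractional inhibitory concentrations, given as log2 (negative = synergy). Replicates are averaged.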

[2] = test system: Mycobacterium tuberculosis Erdman (autoluminescent); assay: FIC50 (Loewe) at 50% inhibition (log2); higher = more antagonistic
Description: as §1

[3] = test system: Mycobacterium tuberculosis Erdman (autoluminescent); assay: FIC90 (Loewe) at 90% inhibition (log2); higher = more antagonistic
Description: as §1

[4] = test system: Mycobacterium tuberculosis Erdman (autoluminescent); assay: GRinf, maximum normalised growth rate inhibition (unitless (-1 to 1)); higher = less effect (negative = killing)
Description: as §1

[5] = test system: Mycobacterium tuberculosis Erdman (autoluminescent); assay: AUC25, normalised area under dose response up to IC25 (fraction (0-1)); higher = more potent at low dose
Description: as §1

COc1c(N2C[C@@H]3CCCN[C@@H]3C2)c(F)cc2c(=O)c(C(=O)O)cn(C3CC3)c12 [moxifloxacin] + CO[C@H]1/C=C/O[C@@]2(C)Oc3c(C)c(O)c4c(O)c(c(/C=N/N5CCN(C)CC5)c(O)c4c3C2=O)NC(=O)/C(C)=C\C=C\[C@H](C)[C@H](O)[C@@H](C)[C@@H](O)[C@@H](C)[C@H](OC(C)=O)[C@@H]1C [rifampicin]
Details	AUC25, [5]	Einf, [1]	FIC50, [2]	FIC90, [3]	GRinf, [4]
in vitro model: acidic pH 5.7, time point: constant (~7 days, model-specific)	0.0689	0.781	0.367	–	0.0866
in vitro model: acidic pH 5.7, time point: terminal (~4-5 doublings, model-specific)	0.0663	0.968	0.382	0.156	-0.0508
in vitro model: intracellular J774, time point: constant = terminal	–	0.985	–	0.644	-0.307

Details	AUC25, [5]	Einf, [1]	FIC50, [2]	FIC90, [3]	GRinf, [4]
in vitro model: butyrate, time point: constant (~7 days, model-specific)	0.107	0.886	0.528	0.508	0.0889
in vitro model: butyrate, time point: terminal (~4-5 doublings, model-specific)	0.0896	0.956	0.435	0.598	0.0327
in vitro model: cholesterol 0.05 mM, time point: constant (~7 days, model-specific)	0.117	0.62	0.744	–	0.145
in vitro model: cholesterol 0.05 mM, time point: terminal (~4-5 doublings, model-specific)	0.091	0.885	0.35	-0.321	-0.0751
in vitro model: cholesterol-high 0.2 mM, time point: constant (~7 days, model-specific)	0.0744	0.8	0.432	–	-0.0793
in vitro model: cholesterol-high 0.2 mM, time point: terminal (~4-5 doublings, model-specific)	0.066	0.985	0.68	0.43	-0.57
in vitro model: dormancy (butyrate + nitrate, low O2), time point: constant (~7 days, model-specific)	0.071	0.923	0.513	-0.28	0.0564
in vitro model: dormancy (butyrate + nitrate, low O2), time point: terminal (~4-5 doublings, model-specific)	0.059	0.98	0.589	0.752	-0.197
in vitro model: standard 7H9 glycerol, time point: constant = terminal	0.0477	0.828	0.486	–	0.308
in vitro model: valerate, time point: constant (~7 days, model-specific)	0.04	0.842	0.724	–	0.085
in vitro model: valerate, time point: terminal (~4-5 doublings, model-specific)	0.0278	0.925	0.717	0.437	0.0646

COc1c(N2C[C@@H]3CCCN[C@@H]3C2)c(F)cc2c(=O)c(C(=O)O)cn(C3CC3)c12 [moxifloxacin] + NC(=O)c1cnccn1 [pyrazinamide]
Details	AUC25, [5]	Einf, [1]	FIC50, [2]	FIC90, [3]	GRinf, [4]
in vitro model: acidic pH 5.7, time point: constant (~7 days, model-specific)	0.105	0.748	-1.4	–	-0.479
in vitro model: acidic pH 5.7, time point: terminal (~4-5 doublings, model-specific)	0.0766	0.958	0.112	-1.08	-0.337
in vitro model: intracellular J774, time point: constant = terminal	–	0.992	–	0.544	-0.418

Details	AUC25, [5]	Einf, [1]	FIC50, [2]	FIC90, [3]	GRinf, [4]
in vitro model: butyrate, time point: constant (~7 days, model-specific)	0.114	0.922	0.244	0.945	-0.0871
in vitro model: butyrate, time point: terminal (~4-5 doublings, model-specific)	0.076	0.967	0.181	0.416	0.0175
in vitro model: cholesterol 0.05 mM, time point: constant (~7 days, model-specific)	0.12	0.628	–	–	0.0508
in vitro model: cholesterol 0.05 mM, time point: terminal (~4-5 doublings, model-specific)	0.135	0.936	-0.139	1.9	-0.173
in vitro model: cholesterol-high 0.2 mM, time point: constant (~7 days, model-specific)	0.0967	0.93	0.32	–	-0.314
in vitro model: cholesterol-high 0.2 mM, time point: terminal (~4-5 doublings, model-specific)	0.0857	0.997	0.528	0.356	-0.695
in vitro model: dormancy (butyrate + nitrate, low O2), time point: constant (~7 days, model-specific)	0.0895	0.921	-0.473	-0.106	0.0154
in vitro model: dormancy (butyrate + nitrate, low O2), time point: terminal (~4-5 doublings, model-specific)	0.0636	0.983	-0.404	-0.148	-0.105
in vitro model: standard 7H9 glycerol, time point: constant = terminal	0.0774	0.974	–	–	-0.163
in vitro model: valerate, time point: constant (~7 days, model-specific)	0.0818	0.834	0.51	–	-0.121
in vitro model: valerate, time point: terminal (~4-5 doublings, model-specific)	0.0462	0.917	0.399	0.0879	0.0483

COc1c(N2C[C@@H]3CCCN[C@@H]3C2)c(F)cc2c(=O)c(C(=O)O)cn(C3CC3)c12 [moxifloxacin] + O=[N+]([O-])c1cn2c(n1)OC[C@@H](OCc1ccc(OC(F)(F)F)cc1)C2 [pretomanid]
Details	AUC25, [5]	Einf, [1]	FIC50, [2]	FIC90, [3]	GRinf, [4]
in vitro model: acidic pH 5.7, time point: constant (~7 days, model-specific)	0.139	0.846	0.225	–	-0.773
in vitro model: acidic pH 5.7, time point: terminal (~4-5 doublings, model-specific)	0.107	0.976	-0.052	0.879	-0.428
in vitro model: intracellular J774, time point: constant = terminal	–	0.993	–	-0.156	-0.437

Details	AUC25, [5]	Einf, [1]	FIC50, [2]	FIC90, [3]	GRinf, [4]
in vitro model: butyrate, time point: constant (~7 days, model-specific)	0.0964	0.947	0.526	0.61	-0.0779
in vitro model: butyrate, time point: terminal (~4-5 doublings, model-specific)	0.0655	0.973	0.406	0.607	-0.07
in vitro model: cholesterol 0.05 mM, time point: constant (~7 days, model-specific)	0.119	0.751	0.221	–	-0.223
in vitro model: cholesterol 0.05 mM, time point: terminal (~4-5 doublings, model-specific)	0.105	0.938	0.248	0.691	-0.248
in vitro model: cholesterol-high 0.2 mM, time point: constant (~7 days, model-specific)	0.103	0.952	0.238	1.96	-0.404
in vitro model: cholesterol-high 0.2 mM, time point: terminal (~4-5 doublings, model-specific)	0.0655	1	0.457	0.364	-0.745
in vitro model: dormancy (butyrate + nitrate, low O2), time point: constant (~7 days, model-specific)	0.0724	0.898	0.568	0.524	0.165
in vitro model: dormancy (butyrate + nitrate, low O2), time point: terminal (~4-5 doublings, model-specific)	0.0602	0.96	0.607	0.936	-0.142
in vitro model: standard 7H9 glycerol, time point: constant = terminal	0.0929	0.978	-0.329	0.198	-0.166
in vitro model: valerate, time point: constant (~7 days, model-specific)	0.12	0.9	-0.0268	–	-0.302
in vitro model: valerate, time point: terminal (~4-5 doublings, model-specific)	0.102	0.968	-0.156	0.429	-0.0344

O=[N+]([O-])c1cn2c(n1)OC[C@@H](OCc1ccc(OC(F)(F)F)cc1)C2 [pretomanid] + CO[C@H]1/C=C/O[C@@]2(C)Oc3c(C)c(O)c4c(O)c(c(/C=N/N5CCN(C6CCCC6)CC5)c(O)c4c3C2=O)NC(=O)/C(C)=C\C=C\[C@H](C)[C@H](O)[C@@H](C)[C@@H](O)[C@@H](C)[C@H](OC(C)=O)[C@@H]1C [rifapentine]
Details	AUC25, [5]	Einf, [1]	FIC50, [2]	FIC90, [3]	GRinf, [4]
in vitro model: acidic pH 5.7, time point: constant (~7 days, model-specific)	0.101	0.925	0.285	–	-0.447
in vitro model: acidic pH 5.7, time point: terminal (~4-5 doublings, model-specific)	0.0525	0.991	0.359	0.243	-0.276
in vitro model: intracellular J774, time point: constant = terminal	–	0.991	–	-0.454	-0.347

Details	AUC25, [5]	Einf, [1]	FIC50, [2]	FIC90, [3]	GRinf, [4]
in vitro model: butyrate, time point: constant (~7 days, model-specific)	0.0925	0.929	0.307	0.357	-0.0285
in vitro model: butyrate, time point: terminal (~4-5 doublings, model-specific)	0.0679	0.963	0.223	0.114	-0.0133
in vitro model: cholesterol 0.05 mM, time point: constant (~7 days, model-specific)	0.114	0.732	0.253	–	-0.354
in vitro model: cholesterol 0.05 mM, time point: terminal (~4-5 doublings, model-specific)	0.0965	0.93	0.285	1.63	-0.257
in vitro model: cholesterol-high 0.2 mM, time point: constant (~7 days, model-specific)	0.0774	0.911	0.634	–	-0.247
in vitro model: cholesterol-high 0.2 mM, time point: terminal (~4-5 doublings, model-specific)	0.0546	0.979	0.806	0.721	-0.463
in vitro model: dormancy (butyrate + nitrate, low O2), time point: constant (~7 days, model-specific)	0.0571	0.904	0.527	0.277	0.192
in vitro model: dormancy (butyrate + nitrate, low O2), time point: terminal (~4-5 doublings, model-specific)	0.0438	0.983	0.383	0.448	-0.148
in vitro model: standard 7H9 glycerol, time point: constant = terminal	0.0697	0.928	-0.158	0.519	0.0428
in vitro model: valerate, time point: constant (~7 days, model-specific)	0.127	0.892	0.377	–	-0.0483
in vitro model: valerate, time point: terminal (~4-5 doublings, model-specific)	0.0738	0.954	0.21	0.484	-0.107
